Reference: US7371412B2, “Pharmaceutical compositions comprising an extract of Euphorbia prostrata” (priority 2004, dated 2008)

Experiments:
[1] = test system: carrageenan-induced hemorrhoids; assay: Antihaemorrhoidal activity, anorectum:body weight ratio model; assay type: in vivo; details: rats, p.o.; for effect against carrageenan-induced hemorrhoids: chronic administration (7 days)
Experimental: The antihaemorrhoidal activity of the Euphorbia prostrata extract was assessed and compared with reference drug, diosmin using anorectum:body weight ratio model in rats (modified method of Jia et al., 2000).
FIG. 1: Effect of Euphorbia prostrata extract (E.p. extract) against carrageenan-induced hemorrhoids in rats.
FIG. 2: Effect of individual component of Euphorbia prostrata extract (E.p. extract) against carrageenan-induced hemorrhoids in rats.

[2] = test system: rat liver microsomes; details: CCl4 induced peroxidation; rat liver microsomes (Cholbi et al., 1991); cited from earlier work
[3] = test system: murine macrophages; details: murine macrophages (Xagorari et al., 2001); cited from earlier work
[4] = test system: carrageenan-induced hyperalgesia; assay: Carrageenan-induced hyperalgesia, paw pressure test; assay type: in vivo; details: rats; 2 mg/kg
Source text: FIG. 7: Effect of Euphorbia prostrata extract (E.p. extract) against carageenan-induced hyperalgesia in rats.

[5] = test system: acetic acid-induced chemonociception; assay: Acetic acid-induced writhing; assay type: in vivo; details: mice; for antinociceptive effect in the writhing test: p.o.
[6] = test system: oedematous response to croton oil; details: Della Loggia et al., 1986; cited from earlier work
[7] = test system: histamine release; details: in vivo (Bhargava and Westfall, 1969); cited from earlier work
[8] = test system: iNOS (inducible nitric oxide synthase); details: lipopolysaccharide activated RAW 264.7 macrophages (Liang et al., 1999); cited from earlier work
[9] = test system: COX-2; details: lipopolysaccharide activated RAW 264.7 macrophages (Liang et al., 1999); cited from earlier work
[10] = In vitro superoxide radical scavenging activity; assay type: biochemical; details: 25 μg
Source text: FIG. 9: In vitro superoxide radical scavenging activity of Euphorbia prostrata extract (E.p. extract).

## O=C(O)c1cc(O)c(O)c(O)c1 [gallic acid]
[1]; 1.123 mg/kg
  effect against carrageenan-induced hemorrhoids: showed effect

## O=c1cc(-c2ccc(O)c(O)c2)oc2cc(O)cc(O)c12 [luteolin]
[2]
  antiperoxidative activity: significant antiperoxidative activity
[3]
  protein tyrosin phosphorylation, nuclear factor-κB mediated gene expression and pro-inflammatory cytokine production: inhibits

## COc1ccc(-c2cc(=O)c3c(O)cc(O[C@@H]4O[C@H](CO[C@@H]5O[C@@H](C)[C@H](O)[C@@H](O)[C@H]5O)[C@@H](O)[C@H](O)[C@H]4O)cc3o2)cc1O [diosmin, reference compound]
[1]; 50 mg/kg, 7 days
  anorectal body weight ratio: significantly decreased
  histopathological examination of the anorectum: intact mucosal layer with prominent mucosal cells and mild leukocyte migration

## CS(=O)(=O)Nc1ccc([N+](=O)[O-])cc1Oc1ccccc1 [nimesulide, reference compound]
[4]
  paw withdrawal latencies: increased
[5]; 2 mg/kg
  pain threshold: significantly increased

## O=c1cc(-c2ccc(O)c(O)c2)oc2cc(O[C@@H]3O[C@H](CO)[C@H](O)[C@H](O)[C@H]3O)cc(O)c12 [luteolin-7-galactoside]
[6]
  oedematous response to croton oil: dose dependent inhibition

## O=c1oc2c(O)c(O)cc3c(=O)oc4c(O)c(O)cc1c4c23 [ellagic acid]
[1]; 1.204 mg/kg
  effect against carrageenan-induced hemorrhoids: showed effect
[7]
  histamine release mediated by histamine liberators (compound 48/80, dextran and polymyxin B sulfate): suppress histamine release

## O=c1cc(-c2ccc(O)cc2)oc2cc(O)cc(O)c12 [apigenin]
[8]
  inhibition of transcriptional activation of iNOS: most potent inhibitor
[2]
  antiperoxidative activity: significant antiperoxidative activity
[9]
  inhibition of transcriptional activation of COX-2: most potent inhibitor

## tocopherol
[10]
  superoxide radical scavenging activity: 25.54%

## O=c1cc(-c2ccc(O)c(O)c2)oc2cc(O[C@@H]3O[C@H](CO)[C@@H](O)[C@H](O)[C@H]3O)cc(O)c12 [luteolin-7-glucoside]
[5]; 0.25, 0.5, and 1.0 mg/kg
  antinociceptive effect in the writhing test: dose-dependent antinociceptive effect

## O=c1cc(-c2ccc(O)cc2)oc2cc(O[C@@H]3O[C@H](CO)[C@@H](O)[C@H](O)[C@H]3O)cc(O)c12 [apigenin-7-glucoside]
[1]; 0.478 mg/kg
  effect against carrageenan-induced hemorrhoids: showed effect
[5]; 0.5, 1.0, and 2.0 mg/kg
  antinociceptive effect in the writhing test: dose-dependent antinociceptive effect
[6]
  oedematous response to croton oil: dose dependent inhibition
